Laboratory results from patent US11639364B2, “Potent sialyltransferase inhibitors” (STICHTING RADBOUD UNIVERSITEIT, priority 2018, dated 2023).
Where two headings read alike, the source gives them in different places.

How the values were obtained:
[1] = test system: HEK293 cells; assay: Inhibition of cell surface sialylation, lectin staining and flow cytometry, HEK293 cells; type: cell-based, Human; details: Homo sapiens, 72 h, three days
Experimental: (§1) Mouse B16-F10 melanoma cells (ATCC CRL-6475) were cultured in Minimum Essential Medium (MEM) (Gibco, Invitrogen, Carlsbad, Calif.) containing 5% fetal bovine serum (FBS) (Greiner Bio-one, Frickenhausen, Germany), 1% MEM non-essential amino acids (Gibco), 0.15% sodium bicarbonate (Gibco), 1 mM sodium pyruvate (Gibco), 1.5% MEM vitamins (Gibco), 1% antibiotic-antimycotic solution (50 U/ml penicillin, 50 μg/ml streptomycin and 125 ng/ml amphotericin B) (Gibco). The murine 9464D neuroblastoma cell line was cultured in Dulbecco's Modified Eagle's Medium (DMEM, Glutamax, Gibco) with 10% FBS, 1% non-essential amino acids, 50 μM 2-mercaptoethanol (Sigma-Aldrich) and 1% antibiotic-antimycotic solution (Kroesen et al., 2014, DOI: 10.1002/ijc.28463, Stauffer et al., 2012, DOI: 10.3109/07357907.2012.664670). The murine EL4 T lymphocyte cell line (ATCC TIB-39) was cultured in Iscove's Modified Dulbecco's Medium (IMDM, Gibco) supplemented with 5% FBS and 1% antibiotic-antimycotic solution. Human HEK293 (ATCC CRL-1573) kidney cells and human HeLa (ATCC CCL-2) cervical cancer cells were cultured in DMEM containing 10% FBS, 2 mM glutamine (Lonza, Walkersville, Md.) and 1% antibiotic-antimycotic solution. Human monocytic THP-1 cells (TIB-202, ATCC) were cultured in RRMI-1640 medium (Gibco) supplemented with 10% FBS, 2 mM glutamine and 1% antibiotic-antimycotic solution. All cell lines were cultured in a humidified 5% CO2 incubator at 37° C.
(§2) To assess the effect of the synthesized compounds on cell surface sialylation, different murine and human cell lines were cultured for three days in the presence of 0-204.8 μM amide and carbamate fluorine sialic acids. Cells treated with an equal final percentage of DMSO were used as control and all cells were subjected to lectin staining and flow cytometry as described below. To investigate the longevity of the effect of the fluorine sialic acids on cell surface sialylation, B16-F10 cells treated with 25.6 μM or 51.2 μM were thoroughly washed with medium to remove fluorine sialic acids from the culture and reseeded. During a period of six days, cells were harvested every day and sialylation was assessed by flow cytometry.
(§3) For the lectin staining, all cells were harvested and washed with 1× carbo-free blocking solution (Vector Laboratories, Inc., Burlingame, Calif., USA) and stained for 45 minutes at 4° C. in 1× carbo-free blocking solution containing 1 mM CaCl2), 1 mM MgCl2 and biotinylated MALII (5 μg/ml), SNA-1 (1 μg/ml) or PNA (5 μg/ml) all obtained from Vector Laboratories Inc. MALII recognizes α2,3-linked sialic acids, SNA-1 recognizes α2,6-linked sialic acids and PNA binds to terminal 3-galactose. In addition, B16-F10 cells were stained with 2 μg/ml biotinylated AAL (α-linked Fucose), LCA (α-linked Mannose), PHA-L (complex glycans), GSL-I (α-linked Galactose and N-Acetylgalactosamine), WGA (chitobiose), SJA (β-linked Galactose and N-Acetylgalactosamine) and PSA (Glucose and Mannose) purchased from Vector Laboratories Inc. Next, the cells were washed thrice in PBA (1×PBS, 1% BSA, and 0.02% sodium azide) and stained for 10 minutes at 4° C. with 2 μg/ml streptavidin-phycoerythrin (PE) (BD Pharmingen, Franklin Lakes, N.J., USA). The cells were washed thrice again with PBA and fluorescence was assessed using a CyAn ADP flow cytometer (BD Biosciences, San Jose, Calif.) followed by analysis with FlowJo software (Tree Star Inc., Ashland, Oreg.). Untreated cells stained with streptavidin-PE only served as background fluorescence control. The percentages lectin binding was calculated by normalizing the mean fluorescence intensity values from the treated cells with the DMSO controls.
(§4) IC50 values and statistics were calculated using Prism 5.03 (GraphPad Software, Inc., La Jolla, Calif.). Statistical significance between the different groups was calculated using one-way ANOVA followed by Bonferroni post-hoc testing and P-values<0.05 were considered significant (p<0.05 *, p<0.01 **, p<0.001 ***). […]

[2] = test system: 9464D cells; assay: Inhibition of cell surface sialylation, lectin staining and flow cytometry, 9464D cells; type: cell-based, murine; details: Mus musculus, 72 h, three days
Experimental: as §1, §2, §3, §4

[3] = test system: THP-1 cells; assay: Inhibition of cell surface sialylation, lectin staining and flow cytometry, THP-1 cells; type: cell-based, Human; details: Homo sapiens, 72 h, three days
Experimental: as §1, §2, §3, §4

[4] = test system: B16-F10 cells; assay: Inhibition of cell surface sialylation, lectin staining and flow cytometry, B16-F10 cells; type: cell-based, Mouse; details: Mus musculus, 72 h, three days
Experimental: as §1, §2, §3, §4

[5] = test system: HeLa cells; assay: Inhibition of cell surface sialylation, lectin staining and flow cytometry, HeLa cells; type: cell-based, human; details: Homo sapiens, 72 h, three days
Experimental: as §1, §2, §3, §4

[6] = test system: EL4 cells; assay: Inhibition of cell surface sialylation, lectin staining and flow cytometry, EL4 cells; type: cell-based, murine; details: Mus musculus, 72 h, three days
Experimental: as §1, §2, §3, §4

[7] = MALII lectin binding, read-out: α2,3-Sia IC50
[8] = SNA-I lectin binding, read-out: α2,6-Sia IC50

| SMILES | IC50 [1, 7] [µM] | IC50 [1, 8] [µM] | IC50 [2, 7] [µM] | IC50 [2, 8] [µM] | IC50 [3, 7] [µM] | IC50 [3, 8] [µM] | IC50 [4, 7] [µM] | IC50 [4, 8] [µM] | IC50 [5, 7] [µM] | IC50 [5, 8] [µM] | IC50 [6, 7] [µM] | IC50 [6, 8] [µM] |
| --- | --- | --- | --- | --- | --- | --- | --- | --- | --- | --- | --- | --- |
| C=CCOC(=O)N[C@@H]1C(OC(C)=O)C(F)C(OC(C)=O)(C(=O)OC)OC1[C@H](OC(C)=O)[C@@H](COC(C)=O)OC(C)=O (stereo partly drawn) [SiaFAII, 5-(alloxycarbamado)-2,4,7,8,9-penta-O-acetyl-3,5-dideoxy-3-fluoro-D-glycero-β-galacto-non-2-ulopyranosonate] | 1.83 ± 1.19 | 1.68 ± 3.2 | 6.91 ± 3.56 | 9.64 ± 3.93 | 0.41 ± 0.73 | 0.38 | 1.39 ± 0.21 | 2.87 ± 0.8 | 1.77 ± 1.78 | 2.04 ± 1.4 | 39.9 ± 4.95 | 50.9 ± 6.44 |
| COC(=O)C1(OC(C)=O)OC([C@H](OC(C)=O)[C@@H](COC(C)=O)OC(C)=O)[C@H](NC(=O)CCl)C(OC(C)=O)C1F (stereo partly drawn) [SiaFAcC, Methyl 5-(chloroacetamido)-2,4,7,8,9-penta-O-acetyl-3,5-dideoxy-3-fluoro-D-glycero-β-galacto-non-2-ulopyranosonate, reference compound] | – | – | – | – | – | – | 18 ± 2.12 | – | – | – | – | – |
| COC(=O)C1(OC(C)=O)OC([C@H](OC(C)=O)[C@@H](COC(C)=O)OC(C)=O)[C@H](NC(=O)CN=[N+]=[N-])C(OC(C)=O)C1F (stereo partly drawn) [SiaFAz, Methyl 5-(azidoacetamido)-2,4,7,8,9-penta-O-acetyl-3,5-dideoxy-3-fluoro-D-glycero-β-galacto-non-2-ulopyranosonate, reference compound] | 45.6 ± 5.14 | 47.2 ± 2.89 | > 102 | > 102 | 10.9 ± 1.98 | 13.2 ± 3.02 | 19.9 ± 2.08 | 32.8 ± 3.55 | 80.6 ± 3.26 | 42.2 ± 8.42 | > 102 | > 102 |
| COC(=O)C1(OC(C)=O)OC([C@H](OC(C)=O)[C@@H](COC(C)=O)OC(C)=O)[C@H](NC(=O)OC(C)(C)C)C(OC(C)=O)C1F (stereo partly drawn) [SiaFBoc, Methyl 5-(tert-butoxycarbamado)-2,4,7,8,9-penta-O-acetyl-3,5-dideoxy-3-fluoro-D-glycero-β-galacto-non-2-ulopyranosonate] | 10.4 ± 4.76 | 28 ± 2.57 | 36.5 ± 3.81 | > 102 | 1.28 ± 1.36 | 1.72 ± 2.3 | 3.48 ± 0.56 | 8.21 ± 0.67 | 12.8 ± 1.61 | 20.6 ± 1.95 | 54.6 ± 3.22 | 50.3 ± 3.99 |
| COC(=O)C1(OC(C)=O)OC([C@H](OC(C)=O)[C@@H](COC(C)=O)OC(C)=O)[C@H](NC(=O)OCc2ccccc2)C(OC(C)=O)C1F (stereo partly drawn) [SiaFCbz, Methyl 5-(benzylcarbamado)-2,4,7,8,9-penta-O-acetyl-3,5-dideoxy-3-fluoro-D-glycero-β-galacto-non-2-ulopyranosonate, reference compound] | – | – | – | – | – | – | 14.5 ± 3.51 | – | – | – | – | – |
| COC(=O)C1(OC(C)=O)OC([C@H](OC(C)=O)[C@@H](COC(C)=O)OC(C)=O)[C@H](NC(=O)COC(C)=O)C(OC(C)=O)C1F (stereo partly drawn) [SiaFGc, Methyl 5-(acetoxyamido)-2,4,7,8,9-penta-O-acetyl-3,5-dideoxy-3-fluoro-D-glycero-β-galacto-non-2-ulopyranosonate] | 53.6 ± 5.25 | 54.1 ± 15.3 | > 102 | > 102 | 4.24 ± 2 | 5.94 ± 2.18 | 4.98 ± 0.33 | 11.8 ± 2.27 | 16.6 ± 3.91 | 12.5 ± 2.52 | > 102 | > 102 |
| COC(=O)N[C@@H]1C(OC(C)=O)C(F)C(OC(C)=O)(C(=O)OC)OC1[C@H](OC(C)=O)[C@@H](COC(C)=O)OC(C)=O (stereo partly drawn) [SiaFMe, Methyl 5-(methylcarbamado)-2,4,7,8,9-penta-O-acetyl-3,5-dideoxy-3-fluoro-D-glycero-β-galacto-non-2-ulopyranosonate] | 3.31 ± 1.24 | 4.77 ± 2.8 | 18.3 ± 2.67 | 29.6 ± 4.67 | 1.98 ± 0.91 | 2.65 ± 1.6 | 4.89 ± 0.25 | 7.54 ± 1.34 | 6.33 ± 3.26 | 5.23 ± 1.88 | 59.2 ± 4.17 | 52.7 ± 5.45 |
| COCCOC(=O)N[C@@H]1C(OC(C)=O)C(F)C(OC(C)=O)(C(=O)OC)OC1[C@H](OC(C)=O)[C@@H](COC(C)=O)OC(C)=O (stereo partly drawn) [SiaFMox, Methyl 5-(2-methoxy-ethylcarbamado)-2,4,7,8,9-penta-O-acetyl-3,5-dideoxy-3-fluoro-D-glycero-R-galacto-non-2-ulopyranosonate] | – | – | – | – | – | – | 25.5 ± 2.53 | 32.4 ± 1.38 | – | – | – | – |
| C#CCCC(=O)N[C@@H]1C(OC(C)=O)C(F)C(OC(C)=O)(C(=O)OC)OC1[C@H](OC(C)=O)[C@@H](COC(C)=O)OC(C)=O (stereo partly drawn) [SiaFPen, Methyl 5-(4-pentynacetamido)-2,4,7,8,9-penta-O-acetyl-3,5-dideoxy-3-fluoro-D-glycero-β-galacto-non-2-ulopyranosonate, reference compound] | 26.2 ± 2.37 | 44.7 ± 4.33 | > 102 | > 102 | 10.4 ± 2.14 | 12.6 ± 3.51 | 40.6 ± 5.67 | 52.5 ± 4.31 | 62.3 ± 3.91 | 51.2 ± 6.06 | > 102 | > 102 |
| C#CCOC(=O)N[C@@H]1C(OC(C)=O)C(F)C(OC(C)=O)(C(=O)OC)OC1[C@H](OC(C)=O)[C@@H](COC(C)=O)OC(C)=O (stereo partly drawn) [SiaFPoc, Methyl 5-(propargylcarbamado)-2,4,7,8,9-penta-O-acetyl-3,5-dideoxy-3-fluoro-D-glycero-β-galacto-non-2-ulopyranosonate] | 1.19 ± 1.47 | 5.42 ± 1.4 | 10.7 ± 2.85 | 40.2 ± 6.56 | 0.42 ± 0.9 | 0.44 | 0.72 ± 0.2 | 2.59 ± 0.07 | 1.65 ± 2.27 | 1.37 ± 0.81 | 51 ± 8.62 | 51.6 ± 2.62 |
| COC(=O)C1(OC(C)=O)OC([C@H](OC(C)=O)[C@@H](COC(C)=O)OC(C)=O)[C@H](NC(=O)C(F)(F)F)C(OC(C)=O)C1F (stereo partly drawn) [SiaFTFA, Methyl 5-(trifluoroacetamido)-2,4,7,8,9-penta-O-acetyl-3,5-dideoxy-3-fluoro-D-glycero-β-galacto-non-2-ulopyranosonate, reference compound] | 42.8 ± 2.38 | 41.4 ± 10.4 | 46.5 ± 4.41 | > 102 | 3.3 ± 1.26 | 7.19 ± 3.6 | 14.3 ± 0.77 | 33.3 ± 2.63 | 25.5 ± 2.61 | 33.4 ± 4.38 | > 102 | > 102 |
| CCCCOC(=O)N[C@@H]1C(OC(C)=O)C(F)C(OC(C)=O)(C(=O)OC)OC1[C@H](OC(C)=O)[C@@H](COC(C)=O)OC(C)=O (stereo partly drawn) [SiaFnBu, Methyl 5-(butylcarbamado)-2,4,7,8,9-penta-O-acetyl-3,5-dideoxy-3-fluoro-D-glycero-β-galacto-non-2-ulopyranosonate] | – | – | – | – | – | – | 7.45 ± 0.92 | 7.91 ± 1.95 | – | – | – | – |
